# Results reported in patent US5455248A, “Substituted 6,11-ethano-6,11-dihydrobenzo[b] quinolizinium salts, and compositions and method of use thereof” (Sterling Winthrop Inc., priority 1993, dated 1995).
# Experiments:
# [1] = biological target: PCP recognition sites (PCP receptor), rat whole brain membranes; test: [^3 H]TCP Radioreceptor Assay (internal screen); type: binding, Male Sprague-Dawley rats; details: for Ki / [^3 H]TCP (internal screen) Percent (%) inhibition @10 μM: [^3 H]TCP approx. 1 nM, room temperature 25 min; for Ki: mean of at least two separate determinations
# Protocol: [^3 H]TCP binding to PCP recognition sites was performed as described by Vignon et al. Brain Research 1983, 280, 194-197. Male Sprague-Dawley rats were sacrificed by decapitation, and whole brains were homogenized in 10 volumes (wt/vol) of cold Tris-HCl buffer (50 mM, pH 7.7) using a Brinkmann Polytron (setting 6, 30 sec). The homogenate was centrifuged at 40,000×g for 10 min at 4° C. The supernatant was decanted, and the homogenization and centrifugation steps were repeated twice as described above. Following this, the pellet was resuspended in Tris-HCl (5 mM, pH 7.7) at a tissue concentration of 0.5-0.75 g/ml, and one ml aliquots were frozen at -70° C. until use. The binding characteristics for PCP recognition sites were not altered by the freezing of membrane suspensions.
# On the day of the assay, membrane aliquots were thawed, resuspended in fresh 5 mM Tris-HCl buffer at a tissue concentration of 1 mg/ml, and stored on ice until use. Each assay tube contained 100 μl of [^3 H]TCP at a final concentration of approximately 1 nM, 100 μl of various concentrations of the compounds of interest, 500 μl of the tissue suspension and 300 μl of buffer to a final assay volume of 1 ml and a final protein concentration of 0.5 mg/tube. Non-specific binding was defined by addition of […]. All tubes were incubated at room temperature for 25 min before termination of the reaction by rapid filtration over Whatman GF/B glass fiber filters that had been presoaked in a solution of 0.5% polyethylenimine for at least 1 hr prior to use. Filters were washed with three 4 ml volumes of cold Tris buffer. Following addition of scintillation cocktail, the amount of bound radioactivity was determined by liquid scintillation spectrometry using a Beckman LS 5000TA liquid scintillation counter with an efficiency for tritium of approximately 55%. Inhibition constants (Ki values) were calculated using the EBDA/LIGAND program (McPherson, J. Pharmacol. Meth. 1985, 14, 213-228), purchased from Elsevier/Biosoft, Inc. Results are reported as Ki values which are expressed as the mean of at least two separate determinations, or as a percent (%) inhibition of binding at 10 μM.
# [2] = tested on: NMDA-induced neurotoxicity in cultured cortical neurons; test: Antagonism of NMDA-induced Neurotoxicity in Cultured Neurons; type: cell-based, Swiss-Webster mice; details: 500 μM NMDA for 30 minutes, LDH activity after 24 hours
# Protocol: Pregnant, Swiss-Webster mice were obtained from Taconic Farms (Germantown, N.Y.) and sacrificed 16 days post conception. Fetuses were removed and placed in a sterile dish containing Hank's balanced salt solution (HBSS), pH 7.4. Brain cortices were dissected, meninges were removed, the tissue was minced and placed into a solution of HBSS containing 0.25% (w/v) trypsin at 37° C. for 15 minutes. Tissue was then triturated with a sterile pasteur pipet, diluted with minimal essential media (Gibco 330-1430), pH 7.4, supplemented with 10% horse serum, 10% fetal calf serum, 2 mM 1-glutamine, 21 mM d-glucose, 2.2 g/L sodium bicarbonate, 1000 U/ml penicillin, and 1,000 μg/ml streptomycin. Cells were plated onto Falcon primaria 96 well plates at a final density of 50,000 cells/well and incubated at 37° C. in the presence of 5% (v/v) carbon dioxide. After 5 days, plating media was replaced with maintenance media containing minimal essential media (Gibco 330-1430), pH 7.4, supplemented with 10% horse serum, […], 21 mM d-glucose, 2.2 g/1 sodium bicarbonate,1,000 U/ml penicillin, 1,000 μg/ml streptomycin, and 10 μM cytosine arabinoside. On days 7 and 10, media was replaced with maintenance media as above lacking the cytosine arabinoside. Experiments were conducted on day 13.
# Day 13 cultured cortical neurons were washed twice with minimal essential media, pH 7.4 and then exposed for 30 minutes to 500 μM N-methyl-D-aspartic acid (NMDA) with or without varying concentrations of test agents. Dizocilpine (MK-801) at a final concentration of 10 μM MK-801 was routinely included as a positive control. MK-801 and test agents were prepared in minimal essential media supplemented with 21 mM d-glucose and 2.2 g/L sodium bicarbonate (MEM). After 30 minutes, media was replaced with MEM alone. Exposure of neurons to test agents was limited to the NMDA treatment period. Twenty-four hours after removal of NMDA, an aliquot of media from each well was removed for assessment of cell injury by determining lactate dehydrogenase (LDH) activity by the method of Wroblewski and LaDue Proc. Soc. […]
# [3] = tested on: PCP recognition sites (PCP receptor), whole rat forebrain membranes; test: [^3 H]TCP Radioreceptor Assay (external screen); type: binding; details: 25° C. for 60 minutes
# Protocol: Representative compounds of the invention were also tested in an external [^3 H]TCP radioreceptor assay using the following protocol:
# A procedure similar to that described above for the [^3 H]TCP radioreceptor assay (internal screen) was utilized except that the whole rat forebrain membranes were incubated at 25° C. for 60 minutes rather than at room temperature for 25 minutes, before termination of the reaction. The results are reported as a percent (%) inhibition of binding at 10 μM.
Compound,Ki [1] [µM],other results
"12-isopropylidene-13,13-dimethyl-6,11-ethano-6,11-dihydrobenzo[b]quinolizinium perchlorate (Formula I: R^1 =H; R^2 =R^3 =CH3 ; R^4 and R^5 together =isopropylidene; X^- =ClO4^-) and 12,12-dimethyl-13-isopropylidene-6,11-ethano-6,11-dihydrobenzo[b]quinolizinium perchlorate [Example 16]",0.265,–
"C=C(C)C1(C)CC2c3ccccc3C1c1cccc[n+]12 (single isomer, unassigned) [Example 2, 6,11-ethano-12-isopropenyl-12-methyl-6,11-dihydrobenzo[b]quinolizinium bromide]",0.208,"IC50 ([2]; Mus musculus, Cortical neurone): 7300 nM"
"C=C(C)C1(COC)CC2c3ccccc3C1c1cccc[n+]12.[O-][Cl+3]([O-])([O-])[O-] (single isomer, unassigned) [Example 4, 6,11-ethano-12-isopropenyl-12-methoxymethyl-6,11-dihydrobenzo[b]quinolizinium perchlorate]",0.313,–
"CC(C)(C)C1C2c3ccccc3C(C1C(C)(C)C)[n+]1ccccc12.F[P-](F)(F)(F)(F)F (single isomer, unassigned) [Example 6, 6,11-ethano-12-tert-butyl13-tert-butyl-6,11-dihydrobenzo[b]quinolizinium hexafluorophosphate]",–,[^3 H]TCP (internal screen) Percent (%) inhibition @10 μM [1]: 44%
"CC(C)(C)C1C2c3ccccc3C(C1C(C)(C)C)[n+]1ccccc12 (single isomer, unassigned) [Example 7, 6,11-ethano-12-tert-butyl-13-tert-butyl-6,11-dihydrobenzo[b]quinolizinium hexafluorophosphate]",5.09,–
"C=CC1CC2c3ccccc3C1c1cccc[n+]12 (single isomer, unassigned) [Example 13(a), 6,11-ethano-12-ethylene-6,11-dihydrobenzo[b]quinolizinium bromide]",–,[^3 H]TCP (internal screen) Percent (%) inhibition @10 μM [1]: 49%
"c1ccc2c(c1)C1CC3(CCC3)C2c2cccc[n+]21 (stereo not shown) [10(b), 6,11-ethano-12,12-(1'-spirocyclobutane)-6,11-dihydrobenzo[b]-quinoliziniumchloride]",3.11,–
"OCC1(CO)CC2c3ccccc3C1c1cccc[n+]12 (stereo not shown) [11(b), 6,11-ethano-12,12-dihydroxymethyl-6,11-dihydrobenzo[b]quinolizinium chloride]",1.95,–
"c1ccc2c(c1)C1CC3(C4CC5CC(C4)CC3C5)C2c2cccc[n+]21 (stereo not shown) [15(b), 6,11-ethano-12,12-(2'-spiro-adamantane)-6,11-dihydrobenzo[b]quinolizinium chloride]",5.29,–
"CCOCC1(COCC)CC2c3ccccc3C1c1cccc[n+]12 (stereo not shown) [17(b), 12,12-diethoxymethyl-6,11-ethano-6,11-dihydrobenzo[b]quinolizinium chloride]",0.353,–
"C#CC1(C#C)CC2c3ccccc3C1c1cccc[n+]12 (stereo not shown) [18(b), 12,12-diethynyl-6,11-ethano-6,11-dihydrobenzo[b]quinolizinium hexafluorophosphate]",0.883,–
"CC1(C)C2c3ccccc3C([n+]3ccccc32)C1(C)C.[O-][Cl+3]([O-])([O-])[O-] (stereo not shown) [Example 1, 6,11-ethano-12, 12, 13,13-tetramethyl-6,11-dihydrobenzo[b]quinolizinium perchlorate]",0.0212,–
"C=C(C)C1(C)CC2c3ccccc3C1c1cccc[n+]12 (stereo not shown) [Example 3, 6,11-ethano-12-isopropenyl-12-methyl-6,11-dihydrobenzo[b]quinolizinium bromide]",0.191,IC50 [2]: 5880 nM
"C=C(C)C1(C)CC2c3ccccc3C1c1cccc[n+]12 (stereo not shown) [Example 5, 6,11-ethano-12-isopropenyl-12-methyl-6,11dihydrobenzo[b]quinolizinium chloride]",0.0652,IC50 [2]: 2810 nM
"[O-][Cl+3]([O-])([O-])[O-].c1ccc2c(c1)C1CC(C3CC3)(C3CC3)C2c2cccc[n+]21 (stereo not shown) [Example 8, 6,11-ethano-12,12-dicyclopropyl-6,11-dihydrobenzo[b]-quinolizinium perchlorate]",0.0881,–
"c1ccc2c(c1)C1CC(C3CC3)(C3CC3)C2c2cccc[n+]21 (stereo not shown) [Example 9, 6.11-ethano-12,12-dicyclopropyl-6,11-dihydrobenzo[b]quinolizinium chloride]",0.103,–
"C=C(C)C1(C)CC2(C)c3ccccc3C1c1cccc[n+]12.[O-][Cl+3]([O-])([O-])[O-] (stereo not shown) [Example 12, 6,11-ethano-6-methyl-12-isopropenyl-12-methyl-6,11-dihydrobenzo[b]quinolizinium perchlorate]",0.069,–
"CC(C)=CC1C2c3ccccc3C([n+]3ccccc32)C1(C)C (stereo not shown) [Example 14, 6,11-ethano-12-(2,2-dimethyl)ethylene-13,13-dimethyl-6,11-dihydrobenzo[b]quinolizinium hexafluorophosphate]",3.54,–
"CC(C)C1(C(C)C)CC2c3ccccc3C1c1cccc[n+]12 (stereo not shown) [Example 19, 12,12-diisopropyl-6,11-dihydrobenzo[b]quinolizium hexafluorophosphate]",6.01,–
"C=C(C)C1(C)CC2c3ccccc3C1c1cccc[n+]12.[O-][Cl+3]([O-])([O-])[O-] (stereo not shown) [Example 20, 6,11-ethano-12-isopropenyl-12-methyl-6,11-dihydrobenzo[b]quinolizinium perchlorate]",0.0457,binding to the PCP receptor (in words) [1]: found to bind to the PCP receptor; [^3 H]TCP (external screen) Percent inhibition (%) @10 μM [3]: 94%
